Measured values reported in US20170198011A1, “COMPOSITION FOR TREATING SEPSIS OR SEPTIC SHOCK COMPRISING THE PEPTIDE ORIGINATED FROM THE SMAD6” (Medpacto, Inc., priority 2011, published 2017).
Where no end group is shown, it is not given here. The star is where a group is joined. Palmitoyl = CCCCCCCCCCCCCCCC(=O)*

Tests used:
[1] = system: IRAK1-, RIP1- or IKKε-mediated signaling complexes; experiment: Co-immunoprecipitation of LPS-induced TLR4 downstream signaling complexes in primary peritoneal macrophages; type: cell-based, mice
Protocol: A co-immunoprecipitation assay was carried out as follows. For use as antibodies in co-immunoprecipitation, mouse anti-HA (F-7), mouse anti-c-Myc (9E10), rabbit anti-IκBα (C-21), mouse anti-IRAK1 (F-4), and mouse anti-TRAF6 (D-10) were purchased from Santa Cruz Biotechnology (USA), the antibodies rabbit anti-Pellino-1 and rabbit anti-IRAK4 from Imgenex, the antibodies rabbit anti-Smad6, rabbit anti-MyD88 (D80F5), rabbit anti-IKKα, rabbit anti-phospho-IKKα/β, rabbit anti-RIP1 (D94C12), rabbit anti-IKKi (anti-IKKE; D61F9), rabbit anti-TBK1 (D1B4), rabbit anti-GRK2 from Cell Signaling, and the antibody anti-β-actin from Sigma. Cells were lysed in a lysis buffer (PBS containing 0.5% Triton X-100, 20 mM HEPES (pH 7.4), 150 mM NaCl, 12.5 mM β-glycerol phosphate, 1.5 mM MgCl2, 10 mM NaF, 2 mM DTT, 1 mM Na3O4V, 2 mM EGTA, 1 mM PMSF and protease inhibitor mixture), and harvested by centrifuging 13,000 rpm for 10 min. For immunoprecipitation, the cell lysate were incubated at 4° C. for 12 hrs with protein-A agarose beads and the above-mentioned antibodies. Afterwards, the beads were washed three times with a lysis buffer, and treated with a 2× sample buffer to separate the co-immunoprecipitates therefrom. The co-immunoprecipitates were boiled, followed by SDS-PAGE.
To examine whether Smaducin-6 interrupts the formation of the downstream signaling complex of TLR4, the cells were pre-treated with Smaducin-6 in the same manner as in Example 1, and analyzed for the LPS-induced formation of the signaling complex using a co-immunoprecipitation method. For control, the same experiment was conducted with scrambled peptides.

[2] = system: lung, liver and spleen of CLP mice; experiment: Hematoxylin-eosin staining of tissues of CLP mice; type: in vivo, BALB/c mice; settings: 16 mg/kg, compared to control
Protocol: For use in assay for therapeutic effects of Smaducin-6 on sepsis, BALB/c mice were subjected to CLP (cecal ligation puncture) to prepare suitable animal models of clinical sepsis. Two hours after CLP operation on the mice, Smaducin-6 was subcutaneously injected at a dose of 8 mg/kg, 12 mg/kg, or 16 mg/kg to the mice, and then three more times at regular intervals of 12 hrs. […] In this context, Smaducin-6 was initially injected at a dose of 16 mg/kg 2, 4, or 10 hrs after CLP operation, and then three more times at regular intervals of 12 hrs. Further, cells from various tissues of CLP mice were stained with hematoxylin-eosin to observe nucleus and cell morphology.

[3] = system: neutrophils; experiment: Peritoneal neutrophil migration in LPS septic shock mice; type: in vivo, BALB/c mice; settings: LPS 60 mg/kg, injected 2 and 14 hrs after, neutrophils isolated at 24 hrs
Excerpt: FIG. 7B is a graph showing neutrophil counts in the peritoneal fluid taken from BALB/c mice with LPS-induced septic shock at 24 hrs after LPS injection,
In mice with CLP-induced sepsis, the bacterial clearance of Smaducin-6 was examined. Smaducin-6 or the scrambled peptides were subcutaneously injected into CLP mice from which peritoneal fluid was then extracted from the mice, and bacteria in the fluid was counted. […] An examination was made to see whether this bacterial clearance of Smaducin-6 was attributed to the intraperitoneal migration of neutrophils. To this end, 2 and 14 hrs after induction of septic shock by injecting 60 mg/kg of LPS, Smaducin-6 or the scrambled peptides were injected into septic shock mice, and 24 hrs after the induction of septic shock, neutrophils were isolated from the peritoneal cavity using Histopaque-1077 (Sigma). Mouse neutrophils were counted using Trypan Blue (Sigma).

[4] = system: CXCR2; experiment: CXCR2 surface expression on human neutrophils by FACS; type: cell-based; settings: 100 nM for 2 hrs, then LPS 2 hrs
Protocol: FIG. 7C is a graph showing expression levels of CXCR2 on the surface of human neutrophils treated for 2 hrs with 100 nM scrambled peptides or Smaducin-6 and then for 2 hrs with LPS, as analyzed by FACS, and
To investigate the mechanism in which Smaducin-6 promotes peritoneal neutrophil migration, human neutrophils were treated for 2 hrs with 100 nM scrambled peptides or Smaducin-6 in advance of LPS treatment for 2 hrs. The expression of CXCR2, a chemokine receptor related with neutrophil migration, on the cell surface was analyzed using flow cytometry (FACS). Human neutrophils were isolated from normal human peripheral blood using Histopaque-1077 (Sigma) over a density gradient under the permission of the […] of Ajou University, School of Medicine (Suwon, Korea).

[5] = system: GRK2; experiment: LPS-induced GRK2 expression in human neutrophils (immunoblot); type: cell-based; settings: 100 nM for 2 hrs, then LPS 2 hrs
Protocol: To examine how Smaducin-6 interrupts with the LPS-induced downregulation of CXCR2, the levels of G-protein-coupled receptor kinase 2 (GRK2) in human neutrophils and RAW264.7 macrophages were measured. GRK2 is upregualted by LPS, which is known to suppress the expression of CXCR2.

[6] = system: TUNEL-positive cells in the spleen; experiment: TUNEL assay of spleen of mice with CLP-induced sepsis; type: in vivo; settings: injected 2 and 14 hrs after CLP, spleen at 24 hrs
Protocol: An examination was made to see whether Smaducin-6 suppresses apoptosis in mice with CLP-induced sepsis. The scrambled peptides or the Smaducin-6 peptide was injected into mice suffering from CLP-induced sepsis from which the spleen was then excised. Smaducin-6 was assayed for anti-apototic activity using the TUNEL method. The expression level of caspase-3, involved in apoptosis, was also determined using an immunohistochemical assay.

[7] = system: TRAIL; experiment: TRAIL expression in splenocytes of CLP mice (flow cytometry, immunohistochemistry); type: in vivo; settings: sepsis mice, flow cytometry and immunohistochemistry
Excerpt: FIG. 8E is a graph showing expression levels of TRAIL in splenocytes of mice subcutaneously injected with Smaducin-6 or scrambled peptides at 2 and 14 hrs after sepsis induction by CLP, as measured by FACS, the splenocytes being taken 24 hrs after sepsis induction, and
Also, the effect of Smaducin-6 on the expression of TRAIL in mice with CLP-induced sepsis was examined. Splenocytes from the mice were subjected to flow cytometry and immunohistochemistry for TRAIL in the same manner as in Examples 8B and 8D. In this context, rabbit antibody TRAIL (C92B9, cell signaling), and FITC-conjugated goat antibody to […] (NOVUS) were used as a primary and a secondary antibody, respectively.

With “Smaducin-6: palmitic acid conjugated to N-terminus of the 20-amino-acid peptide of Smad6 position 422 to 441, GGRALVVRKVPPGYSIKVFD (SEQ ID NO: 1) (Palmitoyl-GGRALVVRKVPPGYSIKVFD)” the “LPS-induced formation of the IKKε-mediated signaling complex” value [1] was “suppressed”, the “LPS-induced formation of the IRAK1-mediated signaling complex” value [1] was “suppressed” and the “LPS-induced formation of the RIP1-mediated signaling complex” value [1] was “suppressed”. The “morphology of cells and tissues of the lung, the liver and the spleen” value [2] was “morphologically restored”, the “migration of neutrophils to the peritoneal cavity” value [3] was “increased” and the “expression of CXCR2 on the cell surface” value [4] was “kept the expression of CXCR2 at a normal level”. For the same substance, the “LPS-induced GRK2 expression” value [5] was “downregualed”, the “level of TUNEL-positive cells in the spleen” value [6] was “significantly reduced” and the “TRAIL expression in splenocytes” value [7] was “reduced”.
